According to patent US11197904B2, “Pharmaceutical compositions for preventions and managements of dementia, infectious diseases, cancers, periodontitis, dental caries, diabetes, obesity, osteoporosis and chronic pain and methods thereof” (Chung Shan Medical University, priority 2018, dated 2021):
Values after ≈ are worked out from the molar mass of the structure shown. Like-named read-outs stand apart in the source and are kept apart here. Marks after values point to notes of the source that are not given here.

What was measured:
[1] = system: Porphyromonas gingivalis (P.g.); test: microbe, parasite or virus in culture; details: read-out: IC50, 50% inhibition on bacterial proliferation, P. g.
[2] = system: Streptococcus mutans (S.m., UA159); test: microbe, parasite or virus in culture; details: read-out: IC50, 50% inhibition on bacterial proliferation, UA159
[3] = system: Pseudomonas aeruginosa (P.a.); test: microbe, parasite or virus in culture; details: read-out: IC50, 50% inhibition on bacterial proliferation, P. a.
[4] = system: Staphylococcus aureus (S.a); test: microbe, parasite or virus in culture; details: read-out: IC50, 50% inhibition on bacterial proliferation, S. a.
[5] = system: Lactobacillus reuteri (L.r.); test: Proliferation of the probiotic Lactobacillus reuteri (OD600); type: cell-based
[6] = system: Porphyromonas gingivalis (P.g.)
[7] = system: Streptococcus mutans (S.m., UA159)
[8] = system: Pseudomonas aeruginosa (P.a.)
[9] = system: Staphylococcus aureus (S.a)
[10] = 3 to 10 times higher than the listed IC50, Table 1
[11] = read-out: IC50, P. g., metals alone
[12] = read-out: IC50, UA159, metals alone
[13] = read-out: IC50, P. a., metals alone
[14] = read-out: IC50, S. a., metals alone
[15] = 3 to 10 times higher IC50, Table 2

Row | SMILES | IC50 [1] | IC50 [2] | IC50 [3] | IC50 [4] | also measured
1 | O[C@H](CS)[C@H](O)CS (racemic) [Dithiothreitol] | > 300 µg/mL | > 300 µg/mL | > 300 µg/mL | > 300 µg/mL | –
2 | CCCCCCc1ccc(O)cc1O [4-Hexyl-Resorcinol] | 20 µg/mL (≈ 103 µM) | 15 µg/mL (≈ 77.2 µM) | > 100 µg/mL | 32 µg/mL (≈ 165 µM) | –
3 | [Cl][Ag] [AgCl] | – | – | – | – | Inhibition on proliferation of Lactobacillus reuteri [5, 10]: AgCl*; IC50 [6, 11]: 14 µM; IC50 ([6]; read-out: IC50 of single drug, Table 14, P. g., drug alone): 14 µM; IC50 [7, 12]: 35 µM; IC50 ([7]; read-out: IC50 of single drug, Table 14, UA159, drug alone): 35 µM; IC50 [8, 13]: 44 µM; IC50 ([8]; read-out: IC50 of single drug, Table 14, P. a., drug alone): 42 µM; IC50 [9, 14]: 28 µM; IC50 ([9]; read-out: IC50 of single drug, Table 14, S. a., drug alone): 56 µM
4 | N=C(N)NCCC[C@H](N)C(=O)N[C@@H](Cc1ccccc1)C(=O)O [ArgPhe] | – | – | – | – | IC50, 50% inhibition on bacterial proliferation, P. g. [6]: >100 µg/mL; IC50, 50% inhibition on bacterial proliferation, UA159 ([7]; S.m., UA159): >100 µg/mL; IC50, 50% inhibition on bacterial proliferation, P. a. ([8]; P.a., 16 h): >100 µg/mL; IC50, 50% inhibition on bacterial proliferation, S. a. ([9]; S.a, 16 h): >100 µg/mL
5 | COc1ccc2cc3[n+](cc2c1OC)CCc1cc2c(cc1-3)OCO2 [Berberine] | > 100 µg/mL | 25 µg/mL | > 100 µg/mL | > 100 µg/mL | –
6 | CN(C)CCCN1c2ccccc2Sc2ccc(Cl)cc21 [Chlorpromazine] | 5 µg/mL (≈ 15.7 µM) | 7 µg/mL (≈ 22 µM) | 149 µg/mL (≈ 467 µM) | 12 µg/mL (≈ 37.6 µM) | Inhibition on proliferation of Lactobacillus reuteri [5, 15]: CPZ, Chlorpromazine*
7 | [Cl][Cu][Cl] [CuCl2] | – | – | – | – | IC50 [6, 11]: 673 µM; IC50 [7, 12]: 448 µM; IC50 [8, 13]: 1690 µM; IC50 [9, 14]: > 2000 µM
8 | COc1cc(/C=C/C(=O)CC(=O)/C=C/c2ccc(O)c(OC)c2)ccc1O [Curcumin] | 126 µg/mL (≈ 342 µM) | 42 µg/mL (≈ 114 µM) | 302 µg/mL (≈ 820 µM) | < 1000 µg/mL | Inhibition on proliferation of Lactobacillus reuteri [5, 10]: C*, Curcumin
9 | Cc1cc(N)c2ccccc2[n+]1CCCCCCCCCC[n+]1c(C)cc(N)c2ccccc21 [Dequalinium] | 3 µg/mL | 1 µg/mL | > 10 µg/mL | 2 µg/mL | –
10 | C[C@@H]1CC[C@@]2(OC1)O[C@H]1[C@@H](O)[C@H]3[C@@H]4CC[C@H]5C[C@@H](O[C@@H]6O[C@H](CO)[C@H](O[C@@H]7O[C@H](CO)[C@@H](O)[C@H](O[C@@H]8OC[C@@H](O)[C@H](O)[C@H]8O)[C@H]7O[C@@H]7O[C@H](CO)[C@H](O)[C@H](O[C@@H]8O[C@H](CO)[C@@H](O)[C@H](O)[C@H]8O)[C@H]7O)[C@H](O)[C@H]6O)[C@H](O)C[C@]5(C)[C@H]4CC[C@]3(C)[C@H]1[C@@H]2C [Digitonin] | 123 µg/mL (≈ 100 µM) | > 300 µg/mL | > 300 µg/mL | > 300 µg/mL | –
11 | COc1ccc([C@@H]2Sc3ccccc3N(CCN(C)C)C(=O)[C@@H]2OC(C)=O)cc1 [Diltiagem] | – | – | – | – | IC50, 50% inhibition on bacterial proliferation, P. g. ([6]; single agent): 104 µg/mL (≈ 251 µM); IC50, 50% inhibition on bacterial proliferation, UA159 ([7]; single agent): >300 µg/mL; IC50, 50% inhibition on bacterial proliferation, P. a. ([8]; single agent): >300 µg/mL; IC50, 50% inhibition on bacterial proliferation, S. a. ([9]; single agent): >300 µg/mL
12 | O=C(O[C@@H]1Cc2c(O)cc(O)cc2O[C@@H]1c1cc(O)c(O)c(O)c1)c1cc(O)c(O)c(O)c1 [EGCG] | – | – | – | – | IC50, 50% inhibition on bacterial proliferation, P. g. ([6]; single agent): 83 µg/mL (≈ 181 µM); IC50, 50% inhibition on bacterial proliferation, UA159 ([7]; single agent): 137 µg/mL (≈ 299 µM); IC50, 50% inhibition on bacterial proliferation, P. a. ([8]; single agent): 173 µg/mL (≈ 377 µM); IC50, 50% inhibition on bacterial proliferation, S. a. ([9]; single agent): 142 µg/mL (≈ 310 µM)
13 | CC(O)(P(=O)(O)O)P(=O)(O)O [Etidronate] | 46 µg/mL (≈ 223 µM) | 597 µg/mL (≈ 2900 µM) | > 1000 µg/mL | 350 µg/mL (≈ 1700 µM) | –
14 | NNC(=O)c1ccncc1 [Isoniazid] | > 300 µg/mL | > 300 µg/mL | > 300 µg/mL | > 300 µg/mL | –
15 | CC12CC3CC(C)(C1)CC(N)(C3)C2 [Memantine] | 59 µg/mL (≈ 329 µM) | 386 µg/mL (≈ 2150 µM) | 321 µg/mL (≈ 1790 µM) | 435 µg/mL (≈ 2430 µM) | –
16 | CN(C)C(=N)N=C(N)N [Metformin] | 639 µg/mL (≈ 4950 µM) | > 1000 µg/mL | > 1000 µg/mL | > 1000 µg/mL | Inhibition on proliferation of Lactobacillus reuteri [5, 15]: MF, Metformin*
17 | [Cl][Mn][Cl] [MnCl2] | – | – | – | – | Inhibition on proliferation of Lactobacillus reuteri [5, 10]: MnCl2*; IC50 [6, 11]: 990 µM; IC50 [7, 12]: 1440 µM; IC50 [8, 13]: > 2000 µM; IC50 [9, 14]: 2740 µM
18 | [Na+].[Na+].[Na+].[O]=[V]([O-])([O-])[O-] [Na3VO4] | – | – | – | – | IC50 [6, 11]: 217 µM; IC50 [7, 12]: 866 µM; IC50 [8, 13]: > 2000 µM; IC50 [9, 14]: > 2000 µM
